Test results published in ChEMBL document CHEMBL3352346, “Optimization of sphingosine-1-phosphate-1 receptor agonists: effects of acidic, basic, and zwitterionic chemotypes on pharmacokinetic and pharmacodynamic profiles” (J Med Chem, 2014).
Converted amounts (≈) assume the structure as drawn. The source made the active and inactive calls. The rule behind the calls is not given here.

Key:
[1] = target: Sphingosine 1-phosphate receptor 3 (Homo sapiens, UniProt Q99500); assay: Agonist activity at human S1P3R expressed in RBL membranes assessed as [35S]GTPgammaS binding after 30 mins; format: functional, cell membranes
[2] = Volume of distribution at steady state in cynomolgus monkey at 1 mg/kg, iv or 3 mg/kg, po using DMSO/10%(w/v) Kleptose, 0.9% saline(aq) (2%/98%); format: ADME, organism-based, Macaca fascicularis; details: in vivo, read-out: Vdss
Rattus norvegicus [3] = assay: Reduction in lymphocyte level in po dosed male Lewis rat; format: functional, organism-based; details: Rattus norvegicus, Lewis
[4] = Oral bioavailability in CD rat at 3 mg/kg using Methylcellulose(aq), 1% (w/v) suspension; format: ADME, organism-based; details: CD, in vivo
[5] = Permeability in MDCK cells; format: ADME, cell-based, Canis lupus familiaris; details: dog, read-out: permeability
[6] = Volume of distribution at steady state in Beagle dog at 1 mg/kg, iv or 2 mg/kg, po using DMSO/10%(w/v) Kleptose, 0.9% saline(aq) (2%/98%); format: ADME, organism-based, Canis lupus familiaris; details: beagle, in vivo, read-out: Vdss
Cytochrome P450 2C9 = Cytochrome P450 2C9 (Homo sapiens, UniProt P11712); assay: Inhibition of CYP2C9 (unknown origin); format: ADME
[7] = Half life in Beagle dog at 1 mg/kg, iv or 2 mg/kg, po using DMSO/10%(w/v) Kleptose, 0.9% saline(aq) (2%/98%); format: ADME, organism-based, Canis lupus familiaris; details: beagle, in vivo
[8] = Inhibition of CYP3A4VG (unknown origin); format: ADME, Homo sapiens
Cytochrome P450 2D6 = Cytochrome P450 2D6 (Homo sapiens, UniProt P10635); assay: Inhibition of CYP2D6 (unknown origin); format: ADME
[9] = Intrinsic clearance in dog hepatocyte; format: ADME, cell-based, Canis lupus familiaris; details: hepatocytes
[10] = Inhibition of CYP3A4VR (unknown origin); format: ADME, Homo sapiens
[11] = Oral bioavailability in Beagle dog at 2 mg/kg using Methylcellulose(aq), 1% (w/v) suspension; format: ADME, organism-based, Canis lupus familiaris; details: beagle, in vivo
[12] = Clearance in cynomolgus monkey at 1 mg/kg, iv or 3 mg/kg, po using DMSO/10%(w/v) Kleptose, 0.9% saline(aq) (2%/98%); format: ADME, organism-based, Macaca fascicularis; details: in vivo
[13] = Clearance in Beagle dog at 1 mg/kg, iv or 2 mg/kg, po using DMSO/10%(w/v) Kleptose, 0.9% saline(aq) (2%/98%); format: ADME, organism-based, Canis lupus familiaris; details: in vivo
[14] = Clearance in CD rat at 1 mg/kg, iv or 3 mg/kg, po using DMSO/10%(w/v) Kleptose, 0.9% saline(aq) (2%/98%); format: ADME, organism-based; details: in vivo
[15] = Fraction unbound in rat blood; format: ADME, tissue-based
Cytochrome P450 2C19 = Cytochrome P450 2C19 (Homo sapiens, UniProt P33261); assay: Inhibition of CYP2C19 (unknown origin); format: ADME
[16] = Solubility in fed-state simulated intestinal fluid at pH 5 after 24 hrs; format: ADME
[17] = Solubility in fed-state simulated intestinal fluid at pH 6.5 after 24 hrs; format: ADME
[18] = Half life in CD rat at 1 mg/kg, iv or 3 mg/kg, po using DMSO/10%(w/v) Kleptose, 0.9% saline(aq) (2%/98%); format: ADME, organism-based; details: in vivo
[19] = Half life in cynomolgus monkey at 1 mg/kg, iv or 3 mg/kg, po using DMSO/10%(w/v) Kleptose, 0.9% saline(aq) (2%/98%); format: ADME, organism-based, Macaca fascicularis; details: in vivo
[20] = Intrinsic clearance in cynomolgus monkey hepatocyte; format: ADME, cell-based, Macaca fascicularis; details: hepatocytes, read-out: CLH
[21] = Volume of distribution at steady state in CD rat at 1 mg/kg, iv or 3 mg/kg, po using DMSO/10%(w/v) Kleptose, 0.9% saline(aq) (2%/98%); format: ADME, organism-based; details: in vivo, read-out: Vdss
[22] = target: Sphingosine 1-phosphate receptor 1 (Homo sapiens, UniProt P21453); assay: Agonist activity at human S1P1R expressed in RH7777 membranes assessed as [35S]GTPgammaS binding after 30 mins; format: functional, cell membranes
[23] = Fraction unbound in cynomolgus monkey blood; format: ADME, tissue-based, Macaca fascicularis
[24] = Fraction unbound in human blood; format: ADME, tissue-based
Albumin = Albumin (Homo sapiens, UniProt P02768); assay: Fraction unbound as a percentage in human serum albumin; format: ADME
[25] = Fraction unbound in dog blood; format: ADME, tissue-based, Canis lupus familiaris
Hepatocyte = assay: Intrinsic clearance in rat hepatocyte; format: ADME, cell-based; details: hepatocytes
[26] = Oral bioavailability in cynomolgus monkey at 3 mg/kg using Methylcellulose(aq), 1% (w/v) suspension; format: ADME, organism-based, Macaca fascicularis; details: in vivo
Cytochrome P450 1A2 = target: T1, Cytochrome P450 1A2 (Homo sapiens, UniProt P05177); assay: Inhibition of CYP1A2 (unknown origin); format: ADME
T1 sequence (P05177 whole entry): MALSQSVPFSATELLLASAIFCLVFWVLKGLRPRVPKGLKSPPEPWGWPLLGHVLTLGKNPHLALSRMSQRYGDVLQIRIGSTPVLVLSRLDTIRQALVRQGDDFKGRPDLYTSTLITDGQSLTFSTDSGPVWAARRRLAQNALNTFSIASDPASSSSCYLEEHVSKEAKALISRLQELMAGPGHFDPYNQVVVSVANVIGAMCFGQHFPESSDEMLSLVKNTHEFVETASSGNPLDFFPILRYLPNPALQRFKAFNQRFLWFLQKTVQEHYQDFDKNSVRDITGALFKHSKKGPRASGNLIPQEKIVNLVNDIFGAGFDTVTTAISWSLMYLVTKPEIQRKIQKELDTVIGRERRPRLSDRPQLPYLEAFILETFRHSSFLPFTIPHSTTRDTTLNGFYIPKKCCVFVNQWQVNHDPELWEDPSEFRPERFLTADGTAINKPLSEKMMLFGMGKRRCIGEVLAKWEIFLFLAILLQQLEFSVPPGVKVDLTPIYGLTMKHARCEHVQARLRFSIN

[27] = Dissociation constant, pKa of the compound; format: physicochemical
[28] = Solubility in simulated gastric fluid; format: ADME
Rattus norvegicus [29] = assay: Reduction of lymphocyte count in rat at 0.3 to 3 mg/kg, po measured relative to control; format: functional, organism-based

Cytochrome P450 2C19, sequence (P33261 whole entry): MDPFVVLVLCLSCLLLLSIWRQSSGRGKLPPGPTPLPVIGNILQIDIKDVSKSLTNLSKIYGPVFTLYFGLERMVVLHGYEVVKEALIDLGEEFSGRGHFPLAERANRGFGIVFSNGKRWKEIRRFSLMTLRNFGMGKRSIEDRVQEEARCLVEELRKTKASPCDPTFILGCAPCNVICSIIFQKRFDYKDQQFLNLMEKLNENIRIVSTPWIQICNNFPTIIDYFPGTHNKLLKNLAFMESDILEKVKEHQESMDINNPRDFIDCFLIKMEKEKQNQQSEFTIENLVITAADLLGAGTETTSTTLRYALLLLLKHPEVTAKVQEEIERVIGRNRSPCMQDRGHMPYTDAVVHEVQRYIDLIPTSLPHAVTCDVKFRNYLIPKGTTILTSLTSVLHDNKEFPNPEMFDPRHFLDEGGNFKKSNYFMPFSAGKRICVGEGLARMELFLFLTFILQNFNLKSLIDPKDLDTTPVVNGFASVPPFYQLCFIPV
Cytochrome P450 2C9, sequence (P11712 whole entry): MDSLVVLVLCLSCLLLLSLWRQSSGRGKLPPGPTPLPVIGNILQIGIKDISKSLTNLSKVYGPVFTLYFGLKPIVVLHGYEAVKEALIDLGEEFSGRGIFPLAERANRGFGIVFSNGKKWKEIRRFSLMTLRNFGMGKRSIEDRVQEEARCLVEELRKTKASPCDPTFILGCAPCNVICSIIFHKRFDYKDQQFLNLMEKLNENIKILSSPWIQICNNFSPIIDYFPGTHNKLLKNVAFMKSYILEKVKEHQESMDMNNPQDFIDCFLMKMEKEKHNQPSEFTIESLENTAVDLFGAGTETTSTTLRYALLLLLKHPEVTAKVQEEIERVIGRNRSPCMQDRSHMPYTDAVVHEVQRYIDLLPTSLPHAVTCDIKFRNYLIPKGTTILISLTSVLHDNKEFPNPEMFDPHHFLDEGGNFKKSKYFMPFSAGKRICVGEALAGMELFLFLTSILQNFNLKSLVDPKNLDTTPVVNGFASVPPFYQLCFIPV
Sphingosine 1-phosphate receptor 1, sequence (P21453 whole entry): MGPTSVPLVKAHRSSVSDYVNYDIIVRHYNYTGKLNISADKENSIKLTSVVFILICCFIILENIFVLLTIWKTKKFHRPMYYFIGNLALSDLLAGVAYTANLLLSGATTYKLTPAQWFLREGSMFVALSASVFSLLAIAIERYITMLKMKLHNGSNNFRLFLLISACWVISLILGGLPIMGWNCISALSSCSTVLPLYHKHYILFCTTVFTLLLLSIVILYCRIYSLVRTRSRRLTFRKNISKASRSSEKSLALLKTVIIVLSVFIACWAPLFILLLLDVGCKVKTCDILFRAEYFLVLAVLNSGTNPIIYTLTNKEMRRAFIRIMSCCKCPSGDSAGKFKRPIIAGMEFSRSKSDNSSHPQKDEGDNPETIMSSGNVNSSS
Cytochrome P450 2D6, sequence (P10635 whole entry): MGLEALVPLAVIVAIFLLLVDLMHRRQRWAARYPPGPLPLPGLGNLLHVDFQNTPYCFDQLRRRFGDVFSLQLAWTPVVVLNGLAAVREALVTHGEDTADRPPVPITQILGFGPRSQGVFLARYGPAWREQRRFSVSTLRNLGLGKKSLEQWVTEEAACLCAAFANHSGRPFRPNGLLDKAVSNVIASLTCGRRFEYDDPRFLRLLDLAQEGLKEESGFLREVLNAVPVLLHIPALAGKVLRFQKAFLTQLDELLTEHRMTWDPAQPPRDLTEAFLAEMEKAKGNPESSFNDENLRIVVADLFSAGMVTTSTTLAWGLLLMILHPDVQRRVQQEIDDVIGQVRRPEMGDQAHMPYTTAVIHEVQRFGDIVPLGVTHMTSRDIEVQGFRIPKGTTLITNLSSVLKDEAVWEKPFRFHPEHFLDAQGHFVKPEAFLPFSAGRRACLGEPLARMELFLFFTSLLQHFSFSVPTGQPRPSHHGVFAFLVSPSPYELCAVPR
Sphingosine 1-phosphate receptor 3, sequence (Q99500 whole entry): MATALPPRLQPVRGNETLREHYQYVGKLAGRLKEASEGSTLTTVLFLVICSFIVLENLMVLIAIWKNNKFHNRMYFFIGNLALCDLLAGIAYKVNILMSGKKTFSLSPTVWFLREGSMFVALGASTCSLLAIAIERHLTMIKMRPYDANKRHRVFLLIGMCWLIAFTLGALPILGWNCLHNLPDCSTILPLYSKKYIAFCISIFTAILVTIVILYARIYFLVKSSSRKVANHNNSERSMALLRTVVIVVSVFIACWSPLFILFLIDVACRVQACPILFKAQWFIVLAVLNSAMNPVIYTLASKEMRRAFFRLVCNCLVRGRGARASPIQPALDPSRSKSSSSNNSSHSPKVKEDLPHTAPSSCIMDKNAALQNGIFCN
Albumin, sequence (P02768 whole entry): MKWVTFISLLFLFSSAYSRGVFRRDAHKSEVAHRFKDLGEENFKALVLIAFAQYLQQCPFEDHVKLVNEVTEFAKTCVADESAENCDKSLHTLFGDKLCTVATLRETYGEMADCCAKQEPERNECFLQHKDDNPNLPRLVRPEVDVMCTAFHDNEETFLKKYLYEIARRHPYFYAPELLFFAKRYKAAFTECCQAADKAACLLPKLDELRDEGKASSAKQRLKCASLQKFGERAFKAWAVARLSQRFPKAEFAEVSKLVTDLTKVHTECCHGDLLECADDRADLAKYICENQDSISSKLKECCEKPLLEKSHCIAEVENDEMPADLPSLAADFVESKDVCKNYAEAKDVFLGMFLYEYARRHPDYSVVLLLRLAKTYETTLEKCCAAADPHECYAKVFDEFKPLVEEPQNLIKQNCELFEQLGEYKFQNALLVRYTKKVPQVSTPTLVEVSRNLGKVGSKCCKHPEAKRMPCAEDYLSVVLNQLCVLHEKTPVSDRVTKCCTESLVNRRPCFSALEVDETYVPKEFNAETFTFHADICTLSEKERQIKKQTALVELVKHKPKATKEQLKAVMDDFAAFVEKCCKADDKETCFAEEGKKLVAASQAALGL

Row | Structure (SMILES) | EC50 [1] [µM] | IC50 (Rattus norvegicus [3]) [µM] | bioavailability [4] [%] | Papp [5] [×10⁻⁶ cm/s] | Vd [6] [L/kg] | IC50 (Cytochrome P450 2C9) [µM] | half-life [7] [h] | IC50 [8] [µM] | IC50 (Cytochrome P450 2D6) [µM] | CLH [9] [mL/min/g] | IC50 [10] [µM] | bioavailability [11] [%] | clearance [13] [mL/min/kg] | clearance [14] [mL/min/kg] | IC50 (Cytochrome P450 2C19) [µM] | solubility at 24 h [16] [µg/mL] | solubility at 24 h [17] [µg/mL] | half-life [18] [h] | Vd [21] [L/kg] | EC50 [22] [µM] | other results
1 | CC(C)Oc1ccc(-c2nc(-c3cccc4c3cnn4CCC(=O)[O-])no2)cc1Cl.[Na+] | > 31.6 | 0.117 | 96 | 20.3 | 1 | 7 | 3.9 | 28 | > 50 | < 1.7 | 25 | 94 | 4 | 2 | > 50 | 44 | 11 | 7.5 | 1 | 0.02 | Vd [2]: 0.4 L/kg; clearance [12]: 3 mL/min/kg; fraction unbound [15]: 0.0017; half-life [19]: 1.2 h; CLint scaled [20]: < 0.9 mL/min/kg; fraction unbound [23]: 0.0018; fraction unbound [24]: 0.001; fraction unbound (Albumin): 0.012; fraction unbound [25]: 0.002; CLH (Hepatocyte): < 0.9 mL/min/g; bioavailability [26]: 59%; IC50 (Cytochrome P450 1A2): > 50 µM
2 | CC(C)Oc1ccc(-c2nc(-c3cccc4c3OCCN(CCCC(=O)O)C4)no2)cc1Cl | > 31.6 | 0.127 | 83 | 15.5 | 1 | 27 | 0.4 | 40 | > 50 | 8.3 | 39 | 57 | 26 | 7 | > 50 | 30 (≈ 63.6 µM) | 320 (≈ 678 µM) | 3 | 1.2 | 0.0398 | Vd [2]: 4 L/kg; pKa [27]: 7.39; clearance [12]: 30 mL/min/kg; fraction unbound [15]: 0.012; solubility [28]: > 1320 µg/mL; half-life [19]: 3.2 h; fraction unbound [24]: 0.02; fraction unbound [25]: 0.018; CLH (Hepatocyte): 1 mL/min/g; bioavailability [26]: 39%; IC50 (Cytochrome P450 1A2): > 50 µM
3 | CC(C)Oc1ccc(-c2nc(-c3ccc4c(c3)CCN(CCCC(=O)O)CC4)no2)cc1C#N | 7.94 | 0.015 | 62 | 15 | 1.6 | > 50 | 8 | > 50 | > 50 | < 1.7 | > 50 | 69 | 3 | 7 | > 50 | 100 (≈ 217 µM) | 30 (≈ 65.1 µM) | 2.6 | 1.5 | 0.00794 | pKa [27]: 9.15; inhibition (Rattus norvegicus [29]): Active; solubility [28]: 20 µg/mL (≈ 43.4 µM); CLH (Hepatocyte): < 0.85 mL/min/g; IC50 (Cytochrome P450 1A2): > 50 µM
